Assay results: BindingDB's records for doi:10.1021/jm00381a005 (1985)

assay: Inhibitory activity against thromboxane B2 formation (TXA2 synthase) by incubating prostaglandin H2 (PGH-2) with horse platelet microsomes

Compound	IC50 [nM]
COCC(CCC/C=C(\c1ccccc1)c1cccnc1)C(=O)O (configuration not stated) [2-Methoxymethyl-7-phenyl-7-pyridin-3-yl-hept-6-enoic acid]	41
O=C(O)CCCC/C=C(/CCCc1ccccc1)c1cccnc1 [10-Phenyl-7-pyridin-3-yl-dec-6-enoic acid]	65
O=C(O)CCCC/C=C(\c1cccnc1)c1cccc([N+](=O)[O-])c1 [7-(3-Nitro-phenyl)-7-pyridin-3-yl-hept-6-enoic acid]	73
COC(=O)CCCC/C=C(\c1ccccc1)c1cccnc1 [7-Phenyl-7-pyridin-3-yl-hept-6-enoic acid methyl ester]	100
Cc1ccsc1/C(=C/CCCCC(=O)O)c1cccnc1 [7-(3-Methyl-thiophen-2-yl)-7-pyridin-3-yl-hept-6-enoic acid]	29
C/C(=C/CCCCC(=O)O)c1cccnc1 [7-Pyridin-3-yl-oct-6-enoic acid]	71
O=C(O)C(CCC/C=C(\c1ccccc1)c1cccnc1)Sc1ccccc1 (configuration not stated) [7-Phenyl-2-phenylsulfanyl-7-pyridin-3-yl-hept-6-enoic acid]	33
CC(C)(CCC/C=C(/c1ccccc1)c1cccnc1)C(=O)O [2,2-Dimethyl-7-phenyl-7-pyridin-3-yl-hept-6-enoic acid]	30
CC(C)(CCCC/C=C(/c1ccccc1)c1cccnc1)C(=O)O [2,2-Dimethyl-8-phenyl-8-pyridin-3-yl-oct-7-enoic acid]	38
CC(C)(CCC/C=C(\c1ccccc1)c1cccnc1)C(=O)O [2,2-Dimethyl-7-phenyl-7-pyridin-3-yl-hept-6-enoic acid]	21
O=C(O)CCCC/C=C(/c1cccnc1)c1ccsc1 [(Z)-7-Pyridin-3-yl-7-thiophen-3-yl-hept-6-enoic acid]	62
CC(C)(CCCC/C=C(\c1ccccc1)c1cccnc1)C(=O)O [2,2-Dimethyl-8-phenyl-8-pyridin-3-yl-oct-7-enoic acid]	45
O=C(O)CCCC/C=C(/c1ccc(F)cc1)c1cccnc1 [7-(4-Fluoro-phenyl)-7-pyridin-3-yl-hept-6-enoic acid]	83
O=C(O)CCCC/C=C(\c1cccnc1)c1cccs1 [7-Pyridin-3-yl-7-thiophen-2-yl-hept-6-enoic acid]	20
O=C(O)CCCCCC(c1ccccc1)c1cccnc1 (configuration not stated) [7-Phenyl-7-pyridin-3-yl-heptanoic acid]	2700
O=C(O)CCCC/C=C(\c1cccnc1)c1ccsc1 [7-Pyridin-3-yl-7-thiophen-3-yl-hept-6-enoic acid]	31
O=C(O)C(CCC/C=C(\c1cccnc1)c1cccs1)c1ccccc1 (configuration not stated) [2-Phenyl-7-pyridin-3-yl-7-thiophen-2-yl-hept-6-enoic acid]	32
CCOC(=O)CCCC/C=C(\c1ccccc1)c1cccnc1 [7-Phenyl-7-pyridin-3-yl-hept-6-enoic acid ethyl ester]	600
O=C(O)C(CCC/C=C(\c1ccccc1)c1cccnc1)C1=CCCC1 (configuration not stated) [2-Cyclopent-1-enyl-7-phenyl-7-pyridin-3-yl-hept-6-enoic acid]	60
O=C(O)CCCC/C=C(/c1ccc(Br)cc1)c1cccnc1 [7-(4-Bromo-phenyl)-7-pyridin-3-yl-hept-6-enoic acid]	82
O=C(O)CCCC/C=C(\c1cccnc1)c1cccc(F)c1 [7-(3-Fluoro-phenyl)-7-pyridin-3-yl-hept-6-enoic acid]	55

Compound	IC50 [nM]
C=C(C)C(CCC/C=C(\c1ccccc1)c1cccnc1)C(=O)O (configuration not stated) [2-Isopropenyl-7-phenyl-7-pyridin-3-yl-hept-6-enoic acid]	28
CSC(CCC/C=C(\c1ccccc1)c1cccnc1)C(=O)O (configuration not stated) [2-Methylsulfanyl-7-phenyl-7-pyridin-3-yl-hept-6-enoic acid]	30
C=CCC(CCC/C=C(\c1ccccc1)c1cccnc1)C(=O)O (configuration not stated) [2-Allyl-7-phenyl-7-pyridin-3-yl-hept-6-enoic acid]	50
O=C(O)CCC/C=C(\c1ccccc1)c1cccnc1 [6-Phenyl-6-pyridin-3-yl-hex-5-enoic acid]	30
O=C(O)CCCC/C=C(\c1ccccc1)c1ccc[n+]([O-])c1 [7-(1-Oxy-pyridin-3-yl)-7-phenyl-hept-6-enoic acid]	> 10000
O=C(O)C(CCC/C=C(/c1cccnc1)c1cccs1)c1ccccc1 (configuration not stated) [2-Phenyl-7-pyridin-3-yl-7-thiophen-2-yl-hept-6-enoic acid]	50
O=C(O)CCC/C=C(/c1ccccc1)c1cccnc1 [6-Phenyl-6-pyridin-3-yl-hex-5-enoic acid]	280
O=C(O)C(CCC/C=C(\c1ccccc1)c1cccnc1)C1(O)CCCC1 (configuration not stated) [2-(1-Hydroxy-cyclopentyl)-7-phenyl-7-pyridin-3-yl-hept-6-enoic acid]	65
Cc1ccc(/C(=C/CCCCC(=O)O)c2cccnc2)cc1 [7-Pyridin-3-yl-7-p-tolyl-hept-6-enoic acid]	85
CC(C)CSC(CCC/C=C(\c1ccccc1)c1cccnc1)C(=O)O (configuration not stated) [2-Isobutylsulfanyl-7-phenyl-7-pyridin-3-yl-hept-6-enoic acid]	110
O=C(O)CCCC/C=C\c1cccnc1 [7-Pyridin-3-yl-hept-6-enoic acid]	250
CC(C)(O)C(CCC/C=C(\c1ccccc1)c1cccnc1)C(=O)O (configuration not stated) [2-(1-Hydroxy-1-methyl-ethyl)-7-phenyl-7-pyridin-3-yl-hept-6-enoic acid]	42
C/C(=C\CCCCC(=O)O)c1cccnc1 [(Z)-7-Pyridin-3-yl-oct-6-enoic acid]	210
O=C(O)CCCC/C=C(\c1cccnc1)c1ccccc1Br [7-(2-Bromo-phenyl)-7-pyridin-3-yl-hept-6-enoic acid]	130
O=C(O)CCCC/C=C(\c1cccnc1)c1cccc(Br)c1 [7-(3-Bromo-phenyl)-7-pyridin-3-yl-hept-6-enoic acid]	180
NC(=O)CCCC/C=C(\c1ccccc1)c1cccnc1 [7-Phenyl-7-pyridin-3-yl-hept-6-enoic acid amide]	400
COc1ccc(/C(=C/CCCCC(=O)O)c2cccnc2)cc1 [7-(4-Methoxy-phenyl)-7-pyridin-3-yl-hept-6-enoic acid]	80
O=C(O)CCCCCCCCC/C=C(/c1ccccc1)c1cccnc1 [12-Phenyl-12-pyridin-3-yl-dodec-11-enoic acid]	520
O=C(O)CCCC/C=C(/c1cccnc1)c1cccs1 [(Z)-7-Pyridin-3-yl-7-thiophen-2-yl-hept-6-enoic acid]	54
O=C(O)CCCC/C=C(/c1ccccc1)c1ccccn1 [7-Phenyl-7-pyridin-2-yl-hept-6-enoic acid]	> 100000
O=C(O)CCCCCCCCC/C=C(\c1ccccc1)c1cccnc1 [12-Phenyl-12-pyridin-3-yl-dodec-11-enoic acid]	55
